Consider 1 molecule from article PMC10830420, “Structures, functions and adaptations of the human LINE-1 ORF2 protein” (Nature, 2023).

Experiment [1] deals with T1, ORF2p core (Homo sapiens, UniProt O00370).
T1 construct: His6-MBP-3C-ORF2p (238-1061, ORFeus-Hs) in pET41; His6-MBP (3C protease site) (N, cleaved yes); made in house; host or cells: E. coli
Nature of the experiment: Gel-based L1 RT assay, ORF2p core, inhibition by NRTI triphosphates. Format: biochemical. The conditions noted are these: 100 nM dNTP mixture. The protocol:
(§1) ORF2p core was preincubated with a template:primer containing a single site for the incorporation of a given nucleotide analogue. The primer/template sequence shown in the panel a illustrates the case of single incorporation of 3TC, with a single G for incorporation; the incoming template sequence for entecavir and carbovir has a single C, and for d4T a single A, each at position labeled “N”. Reactions were incubated for one minute at 37 °C with a 100 nM dNTP mixture and increasing concentrations of listed inhibitors. IC50 index, fold = IC50 (drug, µM) ÷ [dNTP] […] Fluorescein-labeled dNTPs (here, uracil-TP) are incorporated by ORF2p into a biotinylated primer, here shown against a poly(A) template. Detection is then achieved using FRET with a terbium cryptate labeled streptavidin, and the time-resolved technique and time-delayed emission from terbium cryptate reduces background from other fluorescent chemicals in the mix. In the presence of ORF2p RT inhibitors (RTIs), base incorporation is stopped and FRET signal is lost. […]
(§2) ORF2p reverse transcriptase activity assays […]
Gel-based RT activity assays consisted of pr e-incubating RTs with annealed DNA/RNA, DNA/DNA, or RNA/RNA 5’- end- radiolabeled or 5’-end-Cy5- o r FAM-labeled template:primer duplex or hybrid duplex and, where indicated, inhibitor in the presence of 0.1- 1 μ M dNTP or NTP mixture, 0.25 mM EDTA, 50 mM NaCl, and 25 mM Tris (pH 8) for 10 min at 37°C. Labeled nucleic acids were purchased from Dharmacon or IDT. Unless otherwise indicated, 15 μL reactions were initiated by the addition of 1.3 mM MgCl2, incubated for 10 min at 37 °C, and then stopped by the addition of 15 μL of formamide/EDTA (25 mM) mixture and incubated at 95 °C for 10 min. 3 μL reaction samples were subjected to denaturing 8 M urea 20% PAGE to resolve products followed by signal quantification (ImageQuant 5.2, GE Healthcare Bio- Sciences) through phosphorimaging (Amersham Typhoon 5, Cytivia). Scanned gel images are […]
minor products; original images are provided in an Extended Data file. […]

The target of experiment [2] is T1, ORF2p core. Nature of the experiment: Homogeneous time-resolved fluorescence (HTRF) ORF2p RT assay. The experiment is classed as biochemical. The conditions noted are these: HTRF; NRTI NTPs. The protocol:
as §1, §2
For HTRF RT assays157, 25 nM ORF2p core and 12. 5 nM t em plat e: primer was incubated at 25°C for 60 minutes
with 10 nM of fluorescein- 12- dUTP (Thermo), 1 µM each (dATP,dCTP,dGTP), and test compound in a 15 µL
reaction with buffer containing 50 mM Tris-HCl, 50 mM KCl, 10 mM MgCl2, 10 mM DTT, pH 8.1, and 1% final
(In TR-FRET formats the signal depends on donor and acceptor labels being close together.)

What is called IC50 is the concentration needed to halve the response being measured. For the molecule `Cc1cn([C@H]2C=C[C@@H](CO)O2)c(=O)[nH]c1=O` [d4T, stavudine], the “IC50 index, fold = IC50 (drug, µM) ÷ [dNTP] (natural counterpart, 0.1 µM)” value on ORF2p core [1] is given as 4.1 fold. For the same molecule, the IC50 was 0.4 to 0.6 µM at ORF2p core [1] (NTP forms of NRTIs, one minute at 37 °C) and under 0.01 µM against ORF2p core [2].
